# Article PMC7487798, “Glutaredoxin 1 Deficiency Leads to Microneme Protein-Mediated Growth Defects in Neospora caninum” (Frontiers in Microbiology, 2020)
# Molecular target: T1, NcGrx1 (rNcGrx1) (Neospora caninum, UniProt F0VCE0)
# T1 construct: gene NCLIV_038390; recombinant NcGrx1; dithiol CPYC active site
# Experiment: HED assay, coupled to glutathione reductase, NADPH consumption at […] nm
# Format: biochemical
# Details: 0.05-2 mM HED, 600 nM enzyme, 1 mM GSH, 200 μM NADPH, 100 mM potassium phosphate, 1 mM EDTA, pH 7.0, 25 °C; HED preincubated 3 min with GSH to form the mixed disulfide
# T1 sequence (F0VCE0 entry or part of it): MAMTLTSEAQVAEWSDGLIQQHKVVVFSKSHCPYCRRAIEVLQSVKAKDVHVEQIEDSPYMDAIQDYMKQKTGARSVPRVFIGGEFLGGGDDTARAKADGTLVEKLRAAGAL
smiles,measurement,value
OCCSSCCO [β-hydroxyethyl disulfide],Km,208 ± 23.9 µM
